Test results published in the NIST ThermoML archive (doi:10.1021/je700671t).
Numbers after ± are expanded uncertainties.

Tests used:
[1] = 101 kPa, Liquid; for viscosity: Capillary tube (Ostwald / Ubbelohde) method
[2] = xn = mol fraction of the nth substance listed; conditions: 101 kPa, Liquid, x2 = 0; for viscosity: Capillary tube (Ostwald / Ubbelohde) method

CN(C)C=O [dimethylformamide]
[1]
Conditions | mass density [kg/m3] | viscosity [mPa·s]
283.15 K | 958.96 ± 0.25 | –
288.15 K | 954.17 ± 0.26 | –
293.15 K | 949.39 ± 0.27 | 0.864 ± 0.01
298.15 K | 944.6 ± 0.27 | –
303.15 K | 939.83 ± 0.28 | 0.766 ± 0.009
308.15 K | 935.05 ± 0.29 | –
313.15 K | 930.27 ± 0.29 | 0.684 ± 0.009
318.15 K | 925.49 ± 0.3 | –
323.15 K | 920.71 ± 0.31 | 0.617 ± 0.009
328.15 K | 915.92 ± 0.32 | –
333.15 K | 911.13 ± 0.32 | 0.559 ± 0.009
338.15 K | 906.32 ± 0.33 | –
343.15 K | 901.51 ± 0.34 | 0.51 ± 0.009
348.15 K | 896.69 ± 0.34 | –
353.15 K | 891.86 ± 0.35 | 0.47 ± 0.009

O [water] + CN(C)C=O
[2]
Conditions | mass density [kg/m3] | viscosity [mPa·s]
283.15 K | 999.7 ± 0.13 | –
293.15 K | – | 1.026 ± 0.01
303.15 K | – | 0.817 ± 0.009
313.15 K | – | 0.67 ± 0.009
323.15 K | 988.03 ± 0.14 | 0.561 ± 0.009
328.15 K | 985.69 ± 0.15 | –
333.15 K | 983.19 ± 0.15 | 0.48 ± 0.009
338.15 K | 980.55 ± 0.16 | –
343.15 K | 977.76 ± 0.16 | 0.419 ± 0.008
348.15 K | 974.84 ± 0.16 | –
353.15 K | 971.79 ± 0.17 | 0.371 ± 0.008
